In patent publication US10654834B2 (Venenum Biodesign, LLC, priority 2016, dated 2020):

Experiments:
[1] = molecular target: T1, human TGR5 receptor (Homo sapiens, UniProt Q8TDU6); assay: Human TGR5 cAMP production assay (hTGR5-CHO cells, DiscoveRx cAMP XS+ kit); type: cell-based; settings: luminescent cAMP assay, read-out: Human TGR5 Lum. cAMP Activity (EC50)
T1 construct: host or cells: CHO-K1 (hTGR5-CHO)
T1 sequence (Q8TDU6 1-330): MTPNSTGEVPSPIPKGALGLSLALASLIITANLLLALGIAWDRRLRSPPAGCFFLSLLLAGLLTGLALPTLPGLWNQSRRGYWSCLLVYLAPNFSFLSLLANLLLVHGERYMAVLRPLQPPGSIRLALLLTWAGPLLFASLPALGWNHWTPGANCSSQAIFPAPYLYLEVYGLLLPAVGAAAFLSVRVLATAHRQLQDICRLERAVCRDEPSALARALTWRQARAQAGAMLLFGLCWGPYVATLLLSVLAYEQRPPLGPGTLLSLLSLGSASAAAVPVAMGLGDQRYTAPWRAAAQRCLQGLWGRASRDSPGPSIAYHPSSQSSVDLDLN
Procedure, shortened: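 EC50 values come from luminescent enzyme-complementation cAMP detection, read after overnight incubation. Beforehand, hTGR5-expressing CHO-K1 cells with IBMX and anti-cAMP antibody were exposed 1 h at room temperature to serially diluted (half-log) compounds.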

[2] = molecular target: T2, mouse TGR5 receptor (Mus musculus, UniProt Q80SS6); assay: Mouse TGR5 HTRF cAMP production assay (HEK293-EBNA cells, Cisbio cAMP HiRange kit); type: cell-based; settings: HEK293-EBNA cells overexpressing mouse TGR5, HTRF cAMP assay
T2 construct: host or cells: HEK293-EBNA (293 c18, ATCC CRL10852)
T2 sequence (Q80SS6 1-329): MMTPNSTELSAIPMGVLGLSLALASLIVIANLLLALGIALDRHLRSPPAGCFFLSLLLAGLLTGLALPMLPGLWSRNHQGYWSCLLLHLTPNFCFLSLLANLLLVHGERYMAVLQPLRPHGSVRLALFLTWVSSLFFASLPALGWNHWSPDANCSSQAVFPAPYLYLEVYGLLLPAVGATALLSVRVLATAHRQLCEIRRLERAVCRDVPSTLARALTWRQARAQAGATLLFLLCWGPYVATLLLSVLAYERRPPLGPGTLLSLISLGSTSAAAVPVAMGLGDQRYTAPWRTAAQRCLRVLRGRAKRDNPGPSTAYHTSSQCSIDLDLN
Procedure, shortened: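 cAMP accumulation was read by competitive HTRF after 1 h room-temperature compound treatment, with a further 1 h conjugate incubation. Cells were mouse TGR5-overexpressing HEK293-EBNA in serum-free DMEM plus 500 μM IBMX. Compounds ran as 12-point half-log series in duplicate, and EC50 values were reported.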

Structure (SMILES)	EC50 [1] [nM]	EC50 [2] [nM]
O=C(O)CC[C@@H](NC(=O)CCCC1CCN(c2cc(N3CC[C@H]3C(=O)NCCc3ccc(C(F)(F)F)cc3)nc(C(F)(F)F)n2)CC1)C(=O)O [Compound 294, (R)-2-(4-(1-(2-(trifluoromethyl)-6-((S)-2-((4-(trifluoromethyl)-phenethyl)carbamoyl)azetidin-1-yl)pyrimidin-4-yl)piperidin-4-yl)butanamido)pentanedioic acid]	< 100	< 100
N#Cc1ccc(CCNC(=O)[C@@H]2CCN2c2cc(N3CCC(CCNc4c(NCCS(=O)(=O)O)c(=O)c4=O)CC3)nc(C(F)(F)F)n2)cc1 [Compound 297, (S)-2-((2-((2-(1-(6-(2-((4-cyanophenethyl)carbamoyl)azetidin-1-yl)-2-(trifluoromethyl)pyrimidin-4-yl)piperidin-4-yl)ethyl)amino)-3,4-dioxocyclobut-1-en-1-yl)amino)ethanesulfonic acid]	< 100	< 100
N#Cc1ccc(CCNC(=O)[C@@H]2CCN2c2cc(N3CCC(CCNc4c(NCC(=O)O)c(=O)c4=O)CC3)nc(C(F)(F)F)n2)cc1 [Compound 302, (S)-2-((2-((2-(1-(6-(2-((4-cyanophenethyl)carbamoyl)azetidin-1-yl)-2-(trifluoromethyl)pyrimidin-4-yl)piperidin-4-yl)ethyl)amino)-3,4-dioxocyclobut-1-en-1-yl)amino)acetic acid]	< 100	< 100
O=C(O)CCCC1CCN(c2cc(N3CCC[C@@H](C(=O)NCCc4ccc(C(F)(F)F)cc4)C3)nc(C(F)(F)F)n2)CC1 [Compound 330, (R)-4-(1-(2-(trifluoromethyl)-6-(3-((4-(trifluoromethyl)phenethyl)carbamoyl)piperidin-1-yl)pyrimidin-4-yl)piperidin-4-yl)butanoic acid]	< 100	< 100
N#Cc1ccc(CCNC(=O)[C@@H]2CCCN(c3cc(N4CCC(CCNC(=O)NCCC(=O)O)CC4)nc(C(F)(F)F)n3)C2)cc1 [Compound 347, (R)-3-(3-(2-(1-(6-(3-((4-cyanophenethyl)carbamoyl)piperidin-1-yl)-2-(trifluoromethyl)pyrimidin-4-yl)piperidin-4-yl)ethyl)ureido)propanoic acid]	< 100	< 100
N#C/N=C(\NCCC(=O)O)NCCC1CCN(c2cc(N3CC[C@H]3C(=O)NCCc3ccc(C#N)cc3)nc(C(F)(F)F)n2)CC1 [Compound 351, (S,Z)-3-(2-cyano-3-(2-(1-(6-(2-((4-cyanophenethyl)carbamoyl)azetidin-1-yl)-2-(trifluoromethyl)pyrimidin-4-yl)piperidin-4-yl)ethyl)guanidino)propanoic acid]	< 100	< 100
N#Cc1ccc(CCNC(=O)[C@@H]2CCN2c2cc(N3CCC(CCNC(=O)NCCOCCNC(=O)CS(=O)(=O)O)CC3)nc(C(F)(F)F)n2)cc1 [Compound 356, (S)-1-(1-(6-(2-((4-cyanophenethyl)carbamoyl)azetidin-1-yl)-2-(trifluoromethyl)pyrimidin-4-yl)piperidin-4-yl)-4,12-dioxo-8-oxa-3,5,11-triazatridecane-13-sulfonic acid]	< 100	< 100
N#Cc1ccc(CCNC(=O)[C@@H]2CCN2c2cc(N3CCC(CCNC(=O)NCCOCCNC(=O)NCCS(=O)(=O)O)CC3)nc(C(F)(F)F)n2)cc1 [Compound 358, (S)-15-(1-(6-(2-((4-cyanophenethyl)carbamoyl)azetidin-1-yl)-2-(trifluoromethyl)pyrimidin-4-yl)piperidin-4-yl)-4,12-dioxo-8-oxa-3,5,11,13-tetraazapentadecane-1-sulfonic acid]	< 100	< 100
N#Cc1ccc(CCNC(=O)[C@@H]2CCN2c2cc(N3CCC(CCNC(=O)NCCOCCNC(=O)NCCC(=O)O)CC3)nc(C(F)(F)F)n2)cc1 [Compound 360, (S)-1-(1-(6-(2-((4-cyanophenethyl)carbamoyl)azetidin-1-yl)-2-(trifluoromethyl)pyrimidin-4-yl)piperidin-4-yl)-4,12-dioxo-8-oxa-3,5,11,13-tetraazahexadecan-16-oic acid]	< 100	< 100
N#Cc1ccc(CCNC(=O)[C@@H]2CCN2c2cc(N3CCC(CCCC(=O)NCP(=O)(O)O)CC3)nc(C(F)(F)F)n2)cc1 [Compound 362, (S)-((4-(1-(6-(2-((4-cyanophenethyl)carbamoyl)azetidin-1-yl)-2-(trifluoromethyl)pyrimidin-4-yl)piperidin-4-yl)butanamido)methyl)phosphonic acid]	< 100	< 100
N#Cc1ccc(CCNC(=O)[C@@H]2CCN2c2cc(N3CCC(CCNS(=O)(=O)CCNC(=O)[C@@H](N)CS(=O)(=O)O)CC3)nc(C(F)(F)F)n2)cc1 [Compound 363, (R)-2-amino-3-((2-(N-(2-(1-(6-((S)-2-((4-cyanophenethyl)carbamoyl)azetidin-1-yl)-2-(trifluoromethyl)pyrimidin-4-yl)piperidin-4-yl)ethyl)sulfamoyl)ethyl)amino)-3-oxopropane-1-sulfonic acid]	< 100	< 100
N#Cc1ccc(CCNC(=O)[C@@H]2CCCN2c2cc(N3CCC(CCNc4c(NCCS(=O)(=O)O)c(=O)c4=O)CC3)nc(C(F)(F)F)n2)cc1 [Compound 367, (S)-2-((2-((2-(1-(6-(2-((4-cyanophenethyl)carbamoyl)pyrrolidin-1-yl)-2-(trifluoromethyl)pyrimidin-4-yl)piperidin-4-yl)ethyl)amino)-3,4-dioxocyclobut-1-en-1-yl)amino)ethanesulfonic acid]	< 100	< 100
N#Cc1ccc(CCNC(=O)[C@@H]2CCCN2c2cc(N3CCC(CCNc4c(NCCC(=O)O)c(=O)c4=O)CC3)nc(C(F)(F)F)n2)cc1 [Compound 368, (S)-3-((2-((2-(1-(6-(2-((4-cyanophenethyl)carbamoyl)pyrrolidin-1-yl)-2-(trifluoromethyl)pyrimidin-4-yl)piperidin-4-yl)ethyl)amino)-3,4-dioxocyclobut-1-en-1-yl)amino)propanoic acid]	< 100	< 100
N#Cc1ccc(CCNC(=O)[C@@H]2CCCN2c2cc(N3CCC(CCNc4c(NCP(=O)(O)O)c(=O)c4=O)CC3)nc(C(F)(F)F)n2)cc1 [Compound 369, (S)-(((2-((2-(1-(6-(2-((4-cyanophenethyl)carbamoyl)pyrrolidin-1-yl)-2-(trifluoromethyl)pyrimidin-4-yl)piperidin-4-yl)ethyl)amino)-3,4-dioxocyclobut-1-en-1-yl)amino)methyl)phosphonic acid]	< 100	< 100
N#Cc1ccc(CCNC(=O)[C@@H]2CCCN2c2cc(N3CCC(CCNC(=O)NCP(=O)(O)O)CC3)nc(C(F)(F)F)n2)cc1 [Compound 372, (S)-((3-(2-(1-(6-(2-((4-cyanophenethyl)carbamoyl)pyrrolidin-1-yl)-2-(trifluoromethyl)pyrimidin-4-yl)piperidin-4-yl)ethyl)ureido)methyl)phosphonic acid]	< 100	< 100
